Consider nine compounds from patent publication US8802597B2, “Herbicidal pyrimidines” (E I du Pont de Nemours and Company, priority 2003, dated 2014).

Each structure is given as a SMILES string. Like-named read-outs stand apart in the source and are kept apart here.

Assay [1] deals with barnyardgrass (Echinochloa crus-galli). The experiment in a line: Test A pre/postemergence. The assay is classed as in vivo. The following applies: for pest or weed control at 125 g/ha / pest or weed control at 500 g/ha: Echinochloa crus-galli, 240 h, read-out: Plant response rating, Barnyardgrass. The method in brief:
(§1)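 Visual injury scored 0–100 (0 = no effect, 100 = complete control) against untreated controls after about ten days in the greenhouse. Compounds, formulated in non-phytotoxic solvent plus surfactant, were applied preemergence as a directed soil spray and postemergence at the 1- to 2-leaf stage (2–10 cm).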

Assay [2] relates to crabgrass (Digitaria sanguinalis). The experiment in a line: Test A pre/postemergence. It is filed as in vivo. The settings on record: for pest or weed control at 125 g/ha / pest or weed control at 500 g/ha: Digitaria sanguinalis, 240 h, read-out: Plant response rating, Crabgrass. The method in brief: as §1
The mark [3] stands for this setting: post-emergence, Postemergence, 125 g ai/ha, 0 to 100 scale (0 no effect, 100 complete control).
[4] abbreviates: post-emergence, Postemergence, 500 g ai/ha, 0 to 100 scale (0 no effect, 100 complete control).
Setting [5] is: pre-emergence, Preemergence, 125 g ai/ha, 0 to 100 scale where 0 is no effect and 100 is complete control, approximately ten days.
[6] abbreviates: pre-emergence, Preemergence, 500 g ai/ha, 0 to 100 scale where 0 is no effect and 100 is complete control, approximately ten days.
Where [7] appears, read: Postemergence, 125 g ai/ha, 0 to 100 scale (0 no effect, 100 complete control).
Setting [8] is: Postemergence, 500 g ai/ha, 0 to 100 scale (0 no effect, 100 complete control).
Where [9] appears, read: Preemergence, 125 g ai/ha, 0 to 100 scale where 0 is no effect and 100 is complete control, approximately ten days.
Setting [10] is: Preemergence, 500 g ai/ha, 0 to 100 scale where 0 is no effect and 100 is complete control, approximately ten days.

Take `COC(=O)c1nc(C2CC2)nc(N)c1OC` [Compound 59]: the pest or weed control at 125 g/ha in assay [1] (setting [3]), in assay [1] (setting [5]), in assay [2] (setting [3]) and in assay [2] (setting [5]) was 0% each time. The pest or weed control at 500 g/ha in assay [1] (setting [4]) came out at 30%; in assay [1] (setting [6]), 15%; in assay [2] (setting [4]), 10%; in assay [2] (setting [6]), 0%.
Take `COC(=O)c1nc(-c2ccc(Br)cc2)nc(N)c1Br` [Compound 129]: the “Plant response rating, Barnyardgrass” value in assay [1] (setting [7]), in assay [1] (setting [8]), in assay [1] (setting [9]) and in assay [1] (setting [10]) was 0 throughout. For the same compound, the “Plant response rating, Crabgrass” value in assay [2] (setting [7]), in assay [2] (setting [8]), in assay [2] (setting [9]) and in assay [2] (setting [10]) was 0 each time.
On to `CCOC(=O)c1nc(-c2ccc3c(c2)OCO3)nc(N)c1Cl` [Compound 74], for which the pest or weed control at 125 g/ha in assay [1] (setting [3]) was found to be 30%; in assay [1] (setting [5]) it was 0%; in assay [2] (setting [3]) it was 30%; in assay [2] (setting [5]) it was 20%. Further, the pest or weed control at 500 g/ha was 70% in assay [1] (setting [4]), 50% in assay [1] (setting [6]), 60% in assay [2] (setting [4]) and 50% in assay [2] (setting [6]).
Turning to `Nc1nc(C2CC2)nc(C(=O)[O-])c1Br.[Na+]` [Compound 113, 6-amino-5-bromo-2-cyclopropyl-4-pyrimidinecarboxylic acid monosodium salt], the pest or weed control at 125 g/ha in assay [1] (setting [3]) amounted to 55%; in assay [1] (setting [5]) it was 25%; in assay [2] (setting [3]), 25%; in assay [2] (setting [5]), 15%. For the same compound, the pest or weed control at 500 g/ha in assay [1] (setting [4]) came out at 90%; in assay [1] (setting [6]) it was 80%; in assay [2] (setting [4]), 55%; in assay [2] (setting [6]), 70%.
For the compound `COC(=O)c1nc(-c2ccc(I)cc2)nc(N)c1Br` [Compound 128], the “Plant response rating, Barnyardgrass” value in assay [1] (setting [7]), in assay [1] (setting [8]), in assay [1] (setting [9]) and in assay [1] (setting [10]) was 0 in each case. In addition, the “Plant response rating, Crabgrass” value in assay [2] (setting [7]), in assay [2] (setting [8]), in assay [2] (setting [9]) and in assay [2] (setting [10]) was 0 in each case.
As to `CNc1nc(C2CC2)nc(C(=O)OC)c1Cl` [Compound 79], the pest or weed control at 125 g/ha in assay [1] (setting [3]) worked out at 85%; in assay [1] (setting [5]), 30%; in assay [2] (setting [3]), 40%; in assay [2] (setting [5]) it was 30%. In addition, the pest or weed control at 500 g/ha in assay [1] (setting [4]) worked out at 90%; in assay [1] (setting [6]), 80%; in assay [2] (setting [4]), 75%; in assay [2] (setting [6]), 80%.
Consider `Cc1ccc(-c2nc(N)c(Cl)c(C(=O)O)n2)cc1` [Compound 91], for which the “Plant response rating, Barnyardgrass” value worked out at 75 in assay [1] (setting [7]), 90 in assay [1] (setting [8]), 5 in assay [1] (setting [9]) and 80 in assay [1] (setting [10]). Moreover, the “Plant response rating, Crabgrass” value in assay [2] (setting [7]) is on record as 5; in assay [2] (setting [8]), 15; in assay [2] (setting [9]), 25; in assay [2] (setting [10]), 75.
Regarding `COC(=O)c1nc(-c2ccc(Cl)cc2)nc(N)c1Cl` [Compound 58, methyl 6-amino-5-chloro-2-(4-chlorophenyl)-4-pyrimidinecarboxylate], the pest or weed control at 125 g/ha in assay [1] (setting [3]) came to 5%; in assay [1] (setting [5]), 0%; in assay [2] (setting [3]) it was 5%; in assay [2] (setting [5]), 0%. In addition, the pest or weed control at 500 g/ha in assay [1] (setting [4]) was determined as 10%; in assay [1] (setting [6]), 0%; in assay [2] (setting [4]), 10%; in assay [2] (setting [6]) it was 0%.
`COC(=O)c1nc(-c2ccc(Br)cc2)nc(N)c1Cl` [Compound 96, methyl 6-amino-2-(4-bromophenyl)-5-chloro-4-pyrimidinecarboxylate]: the pest or weed control at 125 g/ha in assay [1] (setting [3]) was 20%; in assay [1] (setting [5]), 5%; in assay [2] (setting [3]) it was 5%; in assay [2] (setting [5]), 50%. The pest or weed control at 500 g/ha in assay [1] (setting [4]) amounted to 25%; in assay [1] (setting [6]), 10%; in assay [2] (setting [4]) it was 20%; in assay [2] (setting [6]) it was 65%.
